From patent EP2638113B1, “THIOPHENE AZO DYES AND LAUNDRY CARE COMPOSITIONS CONTAINING THE SAME” (Milliken & Company, priority 2010, dated 2011)

Assay: Aqueous partition value of a dye (water/1-octanol partitioning, absorbance at λmax)
Type: physicochemical
Conditions: Aqueous Partition Value (APV) = (Af/Ai) × 100%, deionized water / 1-octanol, 10.0 mL each
Procedure: • I. Method for Determining the Aqueous Partition Value of a Dye Dissolve in deionized water to a final volume of 10.0 mL an amount of dye sufficient to provide a solution absorbance value between 0.25 and 1.0, said absorbance being determined at the dye λmax between 400 nm and 750 nm, using a cuvette with 1.0 cm path length. Measure the absorbance of the sample at the dye λmax in a UV/Vis spectrophotometer, then transfer the entire 10.0 mL solution to a 50.0 mL plastic centrifuge tube. Add 10.0 mL of 1-octanol, cap the tube, and mix vigorously for 30 seconds using a Vortex™ mixer. Leave the tube standing undisturbed until the layers cleanly phase separate. […] Analyze the solution as before, and quantify the absorbance loss at λmax as "% of Dye Remaining in Aqueous Layer" as detailed below: % of Dye Remaining in Aqueous Layer = Aqueous Partition Value (APV) = (Af/Ai) × 100% [formula] wherein Ai is the initial solution absorbance at λmax and Af is the final solution absorbance at λmax. • II. […] After such washing step separately rinse the swatches in tap water and air dry the swatches in the dark. • e.) After rinsing and drying each swatch, the hueing efficiency, DE*eff, of the dye is assessed by determining the L*, a*, and b* value measurements of each swatch using a Hunter LabScan XE reflectance spectrophotometer with D65 illumination, 10° observer and UV filter excluded. […]

Row | Structure (SMILES) | % Dye in Water Layer
1 | CCN(CCOCCOCCOCCOCCn1cc[n+](C)c1)c1ccc(/N=N/c2sc(C#N)c(C)c2C#N)c(C)c1 [Example 13] | 20%
2 | CCN(CCOCCOCCOCCOCC[N+](C)(C)CCCS(=O)(=O)[O-])c1ccc(/N=N/c2sc(C#N)c(C)c2C#N)c(C)c1 [Example 15] | 3%
